The record followed here is publication PMC9611726, “Synthesis, Characterization and Biological Investigation of New N-Modified Spinorphin Analogs” (Pharmaceuticals, 2022).

Marks after values point to notes of the source that are not given here. Where a SMILES comes first, the peptide text is derived from it. [ ]: non-standard residue; d: D form. The star is where a group is joined. X1 = CCN(CC)c1ccc2c(c1)Oc1cc(N(CC)CC)ccc1C2c1ccccc1C(=O)*; Ac6c = NC1(C(=O)O)CCCCC1; Ac5c = NC1(C(=O)O)CCCC1

Assay [1] has as its system 6-Hz-induced psychomotor seizures. Description: Six Hz psychomotor seizure test. The assay is classed as in vivo, mice. Particulars: i.c.v.; for % Protection / No. of Animals Protected/No. of Animals Tested: 6 Hz test, male ICR mice, test 10 min after administration; for anticonvulsant effect against 6-Hz-induced psychomotor seizures (in words): highest dose of 20 μg. From the text:
(§1) The screeing test for anticonvulsant activity of drugs was perfomed on male ICR mice (25–30 g), purchased by the vivarium of the Institute of Neurobiology, BAS. They were kept in standard laboratory conditions and cages in groups of 5–6 per cage with ad libitum access to commercial pellets for rodents and water. After a week of adaptation, all mice were allocated in groups of 6 according to their treatment and test procedure. Each mouse was used only for one experiment. All procedures were performed in agreement with the European Communities Council Directive 2010/63/EU. The experimental design was approved by the Bulgarian Food Safety Agency (#300/№ 5888–0183).
(§2) […] The test for anticonvulsant activity was carried out 10 min after drug administration.
The test for assessment drug effect against psychomotor seizures was performed via a constant current device and corneal electrodes as previously. The criterion for assessing the anticonvulsant activity was restoration of normal posture 10 s after stimulation. Controls (mice treated with vehicle) were unable to resume normal behavior and stimulation trigger different stereotypic responses and automatism such as sniffing, vibrissae, locomotion, Straub tail, or clonic seizures.
(§3) For the 6-Hz test and MES a Fisher’s exact test (two-tailed) was applied. A one-way ANOVA of variance was used for the ivPTZ test and a Dunnet post hoc test in case of significance. Statistical significance was accepted at p ≤ 0.05 vs. control (Fisher’s exact test). The calculations were carried out with SigmaPlot program (11.0 version) and Graph Pad Prizm (Version 7.04) (GraphPad Software, San Diego, CA, USA).

A further assay relates to tonic seizures (MES). The assay can be described thus: Maximal electroshock test (MES test). The following applies: i.c.v.; for % Mortality / % Protection / No. of Animals Protected/No. of Animals Tested: male ICR mice; for No. of Animals Protected/No. of Animals Tested: test 10 min after administration. Format: in vivo, mice.
Excerpt: as §1, §2
The MES test was carried out with the device used for the 6-Hz test according to the protocol reported in [38, 39]. The criterion for protection was accepted when the mouse […].
as §3
(In general: In the maximal electroshock model the usual endpoint is tonic extension of the hind limbs.)

Assay [2] in a line: Antioxidant activity, DPPH radical scavenging. The following applies: 77 μL sample + 3 mL DPPH, 30 min in the dark, 517 nm, standard BHT. On the procedure:
The determination of the antioxidant activity of the new peptide derivatives was carried out by inserting 77 μL of hL extract into a test tube, then adding 3 mL of DPPH solution, homogenizing, and incubating for 30 min in a dark room. The measurement of antioxidant activity was performed by a spectrophotometer with a wavelength of 517 nm. The treatment was carried out three times. The determination of activity for the standard solution was conducted by first diluting 0.025 BHT (butylated hydroxytoluene) with 1 mL of methanol. Then 3 mL of DPPH was added to 77 μL of BHT solution in a test tube, homogenized, and incubated for 30 min in a dark room. The treatment was repeated three times. For the blank, only 77 μL of methanol plus 3 mL of DPPH were used, then homogenized and incubated for 30 min in a dark room. According to Millauskas et al. (2004), the free radical scavenging activity of the sample was calculated by the formula:(3) DPPH radical concentration (%)=Acontrol− Asample/Acontrol × 100 where Acontrol is the absorbance value of the control reaction and Asample is the absorbance value in the presence of the tested extracts sample.
In general terms: The DPPH test is a chemical assay of radical scavenging.

The mark [3] stands for this setting: mice, p ≤ 0.05 compared to control.

Take `CCN(CC)c1ccc2c(c1)Oc1cc(N(CC)CC)ccc1C2c1ccccc1C(=O)N[C@@H](CC(C)C)C(=O)N[C@H](C(=O)N[C@H](C(=O)N[C@@H](Cc1ccc(O)cc1)C(=O)N1CCC[C@H]1C(=O)N[C@@H](Cc1c[nH]c2ccccc12)C(=O)N[C@H](C(N)=O)[C@@H](C)O)C(C)C)C(C)C` [Rh-S, rhodamineB-Leu-Val-Val-Tyr-Pro-Trp-Thr-NH2] (X1-LVVYPWT-NH2): the “% Protection” value in assay [1] (dose 5 µg/10 µL) is 67 * %; in assay [1] (dose 10 µg/10 µL) it was 100 * %; in assay [1] (dose 20 µg/10 µL), 67 * %; with tonic seizures (MES) (MES test, dose 5 µg/10 µL), 50%; with tonic seizures (MES) (MES test, dose 10 µg/10 µL) it was 50%; in the assay on tonic seizures (MES) (MES test, dose 20 µg/10 µL), 67 * %. The “No. of Animals Protected/No. of Animals Tested” value in assay [1] (dose 5 µg/10 µL) is given as 4/6; in assay [1] (dose 10 µg/10 µL) it was 6/6; in assay [1] (dose 20 µg/10 µL) it was 4/6; in the assay with tonic seizures (MES) (MES test, dose 5 µg/10 µL), 3/6; in the assay with tonic seizures (MES) (MES test, dose 10 µg/10 µL), 3/6; with tonic seizures (MES) (MES test, dose 20 µg/10 µL) it was 4/6. The “protection against 6-Hz-induced psychomotor seizures (in words)” value in assay [1] (mice, at the three doses used (5, 10, and 20 μg), p ≤ 0.05 compared to control) was “significant protection”. The “% Mortality” value in the assay on tonic seizures (MES) (MES test, dose 5 µg/10 µL) is 50%; in the assay on tonic seizures (MES) (MES test, dose 10 µg/10 µL), 0%; in the assay with tonic seizures (MES) (MES test, dose 20 µg/10 µL), 33%. In addition, the “antioxidant activity compared to the positive control (in words)” value in assay [2] is given as “similar”.
With `CCN(CC)c1ccc2c(c1)Oc1cc(N(CC)CC)ccc1C2c1ccccc1C(=O)N[C@@H](CC(C)C)C(=O)N[C@H](C(=O)N[C@H](C(=O)N[C@@H](Cc1ccc(O)cc1)C(=O)NC1(C(=O)N[C@@H](Cc2c[nH]c3ccccc23)C(=O)N[C@H](C(N)=O)[C@@H](C)O)CCCC1)C(C)C)C(C)C` [Rh-S5, rhodamineB-Leu-Val-Val-Tyr-Ac5c-Trp-Thr-NH2] (X1-LVVY[Ac5c]WT-NH2), the “% Protection” value was 17% in assay [1] (dose 5 µg/10 µL); 33% in assay [1] (dose 10 µg/10 µL); 83 * % in assay [1] (dose 20 µg/10 µL); 41% in the assay on tonic seizures (MES) (MES test, dose 5 µg/10 µL); 42% in the assay on tonic seizures (MES) (MES test, dose 10 µg/10 µL); 67 * % in the assay with tonic seizures (MES) (MES test, dose 20 µg/10 µL). In addition, the “No. of Animals Protected/No. of Animals Tested” value in assay [1] (dose 5 µg/10 µL) is given as 1/6; in assay [1] (dose 10 µg/10 µL) it was 2/6; in assay [1] (dose 20 µg/10 µL) it was 5/6; in the assay with tonic seizures (MES) (MES test, dose 10 µg/10 µL) it was 5/12; in the assay with tonic seizures (MES) (MES test, dose 20 µg/10 µL) it was 4/6. Further, in assay [1] (setting [3]), the “anticonvulsant effect against 6-Hz-induced psychomotor seizures (in words)” value is reported as “significant anticonvulsant effect”. Besides, the “% Mortality” value with tonic seizures (MES) (MES test, dose 5 µg/10 µL) came out at 17%; with tonic seizures (MES) (MES test, dose 10 µg/10 µL), 17%; in the assay on tonic seizures (MES) (MES test, dose 20 µg/10 µL), 17%. For the same compound, the “protective potency against tonic seizures (in words)” value in the assay with tonic seizures (MES) (MES test, mice, dose of 20 µg, p ≤ 0.05 compared to control) is given as “stronger protective potency compared to the heptapeptide Rh-S”. Besides, the “antioxidant activity compared to the positive control (in words)” value in assay [2] is on record as “weak”.
On to `CCN(CC)c1ccc2c(c1)Oc1cc(N(CC)CC)ccc1C2c1ccccc1C(=O)N[C@@H](CC(C)C)C(=O)N[C@H](C(=O)N[C@H](C(=O)N[C@@H](Cc1ccc(O)cc1)C(=O)NC1(C(=O)N[C@@H](Cc2c[nH]c3ccccc23)C(=O)N[C@H](C(N)=O)[C@@H](C)O)CCCCC1)C(C)C)C(C)C` [Rh-S6, rhodamineB-Leu-Val-Val-Tyr-Ac6c-Trp-Thr-NH2] (X1-LVVY[Ac6c]WT-NH2), for which the “% Protection” value in assay [1] (dose 5 µg/10 µL) was 33%; in assay [1] (dose 10 µg/10 µL) it was 50%; in assay [1] (dose 20 µg/10 µL) it was 67 * %; with tonic seizures (MES) (MES test, dose 5 µg/10 µL) it was 100 * %; with tonic seizures (MES) (MES test, dose 10 µg/10 µL) it was 100 * %; in the assay with tonic seizures (MES) (MES test, dose 20 µg/10 µL) it was 100 * %. Besides, the “No. of Animals Protected/No. of Animals Tested” value in assay [1] (dose 5 µg/10 µL) was 2/6; in assay [1] (dose 10 µg/10 µL), 3/6; in assay [1] (dose 20 µg/10 µL), 4/6; with tonic seizures (MES) (MES test, dose 5 µg/10 µL) it was 6/6; in the assay with tonic seizures (MES) (MES test, dose 10 µg/10 µL), 6/6; in the assay on tonic seizures (MES) (MES test, dose 20 µg/10 µL), 6/6. For the same compound, the “anticonvulsant effect against 6-Hz-induced psychomotor seizures (in words)” value in assay [1] (setting [3]) was “significant anticonvulsant effect”. The “% Mortality” value with tonic seizures (MES) (MES test, dose 5 µg/10 µL) came out at 0%; in the assay with tonic seizures (MES) (MES test, dose 10 µg/10 µL) it was 0%; in the assay with tonic seizures (MES) (MES test, dose 20 µg/10 µL), 0%. The “mortality in the MES test (in words)” value in the assay on tonic seizures (MES) (mice, at the three doses studied (5, 10 and 20 μg)) is given as “no mortality”. Besides, the “protection in the MES test” value with tonic seizures (MES) (mice, at the three doses studied (5, 10 and 20 μg), p ≤ 0.05 compared to control) stood at 100%. For the same compound, the “antioxidant activity compared to the positive control (in words)” value in assay [2] is “similar”.
